The source of these data is ChEMBL document CHEMBL3046732, “Synthesis and biological evaluation of new [1,3,4]thiadiazepino[7,6-b]quinolin-2-amines as potent anti-microbial agents” (2013).

The test system of one test is Curvularia australiensis. Kind of test: Antimicrobial activity against Curvularia australiensis assessed as growth inhibition by microdilution method. The format is functional. (In general: In broth dilution the organism is exposed to a series of concentrations in liquid medium.)
In a further test the test system is Aspergillus niger. Description: Antimicrobial activity against Aspergillus niger assessed as growth inhibition by microdilution method. The format is functional.
For the next test, the system named is Alternaria alternata. Kind of test: Antimicrobial activity against Alternaria alternata assessed as growth inhibition by microdilution method. It counts as functional.
The next test relates to Aspergillus flavus. Kind of test: Antimicrobial activity against Aspergillus flavus assessed as growth inhibition by microdilution method. The format is functional.
The subject of another test is Trichoderma reesei. Kind of test: Antimicrobial activity against Trichoderma reesei assessed as growth inhibition by microdilution method. It counts as functional.
A further test deals with Escherichia coli. Kind of test: Antimicrobial activity against Escherichia coli assessed as growth inhibition by microdilution method.
Another test deals with Bacillus subtilis. Kind of test: Antimicrobial activity against Bacillus subtilis assessed as growth inhibition by microdilution method.
The next test concerns Staphylococcus aureus. Description: Antimicrobial activity against Staphylococcus aureus assessed as growth inhibition by microdilution method.
A further test deals with Klebsiella aerogenes. Kind of test: Antimicrobial activity against Enterobacter aerogenes assessed as growth inhibition by microdilution method.
For a further test, the system named is Streptococcus pyogenes. Description: Antimicrobial activity against Streptococcus pyogenes assessed as growth inhibition by microdilution method.
The next test has as its system Salmonella typhimurium. Kind of test: Antimicrobial activity against Salmonella enterica subsp. enterica serovar Typhimurium assessed as growth inhibition by microdilution method.

The term MIC denotes the lowest concentration found to suppress growth. In the case of `Cc1ccc2nc3c(cc2c1)C=NN=C(Nc1ccccc1C)S3`, the MIC was found to be 1000 mg/L in the test with Curvularia australiensis; 250 mg/L in the test with Aspergillus niger; 1000 mg/L in the test with Alternaria alternata; 125 mg/L with Aspergillus flavus; 125 mg/L in the test with Trichoderma reesei; 1000 mg/L in the test on Escherichia coli. Moreover, the MIC came to 500 mg/L in the test with Bacillus subtilis; 500 mg/L in the test with Staphylococcus aureus; 500 mg/L with Klebsiella aerogenes; 500 mg/L with Streptococcus pyogenes; 1000 mg/L in the test with Salmonella typhimurium.
On to `COc1ccc2nc3c(cc2c1)C=NN=C(Nc1c(C)cccc1C)S3`, for which the MIC in the test on Curvularia australiensis amounted to 500 mg/L; in the test with Aspergillus niger, 1000 mg/L; in the test on Alternaria alternata, 1000 mg/L; with Aspergillus flavus, 500 mg/L; with Trichoderma reesei, 500 mg/L; in the test on Escherichia coli, 500 mg/L. Besides, the MIC with Bacillus subtilis was found to be 1000 mg/L; in the test on Staphylococcus aureus, 1000 mg/L; in the test on Klebsiella aerogenes it was 500 mg/L; in the test on Streptococcus pyogenes it was 500 mg/L; in the test on Salmonella typhimurium it was 500 mg/L.
Consider `COc1ccc2nc3c(cc2c1)C=NN=C(Nc1cccc(Cl)c1)S3`, for which the MIC in the test on Curvularia australiensis was found to be 500 mg/L; in the test on Aspergillus niger it was 500 mg/L; in the test with Alternaria alternata it was 60 mg/L; in the test on Aspergillus flavus, 500 mg/L; in the test on Trichoderma reesei, 500 mg/L; in the test on Escherichia coli, 30 mg/L. Further, the MIC with Bacillus subtilis was 60 mg/L; in the test with Staphylococcus aureus, 500 mg/L; in the test on Klebsiella aerogenes, 250 mg/L; with Streptococcus pyogenes, 30 mg/L; in the test with Salmonella typhimurium, 500 mg/L.
Take `Cc1c(Cl)ccc2cc3c(nc12)SC(Nc1cccc(F)c1)=NN=C3`: the MIC was 1000 mg/L with Curvularia australiensis; 1000 mg/L with Aspergillus niger; 1000 mg/L in the test with Alternaria alternata; 1000 mg/L in the test on Aspergillus flavus; 250 mg/L in the test with Trichoderma reesei; 500 mg/L in the test on Escherichia coli. Further, the MIC was 60 mg/L in the test on Bacillus subtilis; 1000 mg/L in the test with Staphylococcus aureus; 500 mg/L with Klebsiella aerogenes; 1000 mg/L in the test on Streptococcus pyogenes; 1000 mg/L with Salmonella typhimurium.
On to `Cc1cccc2cc3c(nc12)SC(Nc1ccccc1)=NN=C3`, for which the MIC with Curvularia australiensis was over 1000 mg/L; with Aspergillus niger, 1000 mg/L; in the test with Alternaria alternata it was 1000 mg/L; with Aspergillus flavus, 1000 mg/L; in the test on Trichoderma reesei it was 500 mg/L; in the test with Escherichia coli, 1000 mg/L. Also, the MIC with Bacillus subtilis, with Staphylococcus aureus, with Klebsiella aerogenes, with Streptococcus pyogenes and with Salmonella typhimurium was 1000 mg/L throughout.
As to `CCc1ccc(NC2=NN=Cc3cc4cc(OC)ccc4nc3S2)cc1`, the minimum inhibitory concentration (MIC) is 1000 mg/L with Curvularia australiensis; 500 mg/L with Aspergillus niger; 500 mg/L in the test on Alternaria alternata; 500 mg/L in the test on Aspergillus flavus; 500 mg/L with Trichoderma reesei; 500 mg/L in the test on Escherichia coli. The MIC with Bacillus subtilis, with Staphylococcus aureus, in the test on Klebsiella aerogenes, in the test with Streptococcus pyogenes and in the test on Salmonella typhimurium was 500 mg/L each time.
Turning to `Cc1ccc(NC2=NN=Cc3cc4cccc(C)c4nc3S2)cc1`, the MIC in the test with Curvularia australiensis turned out to be 1000 mg/L; with Aspergillus niger, 1000 mg/L; in the test on Alternaria alternata it was 1000 mg/L; in the test with Aspergillus flavus, 500 mg/L; with Trichoderma reesei, 500 mg/L; in the test with Escherichia coli, 1000 mg/L. Besides, the MIC in the test on Bacillus subtilis, with Staphylococcus aureus, in the test with Klebsiella aerogenes, with Streptococcus pyogenes and in the test with Salmonella typhimurium was 1000 mg/L in each case.
Regarding `Cc1c(Cl)ccc2cc3c(nc12)SC(NCCN1CCOCC1)=NN=C3`, the MIC in the test on Curvularia australiensis was 1000 mg/L; in the test on Aspergillus niger it was 1000 mg/L; in the test with Alternaria alternata, 1000 mg/L; in the test on Aspergillus flavus, 1000 mg/L; with Trichoderma reesei, 1000 mg/L; in the test with Escherichia coli, 500 mg/L. For the same compound, the MIC was 250 mg/L in the test with Bacillus subtilis; 250 mg/L with Staphylococcus aureus; 250 mg/L with Klebsiella aerogenes; 250 mg/L in the test on Streptococcus pyogenes; 125 mg/L in the test with Salmonella typhimurium.
As to `COc1ccc2nc3c(cc2c1)C=NN=C(Nc1ccc(C)cc1C)S3`, the MIC worked out at 500 mg/L in the test with Curvularia australiensis; 1000 mg/L in the test with Aspergillus niger; 250 mg/L in the test on Alternaria alternata; 1000 mg/L with Aspergillus flavus; 500 mg/L with Trichoderma reesei; 500 mg/L with Escherichia coli. Also, the MIC in the test on Bacillus subtilis is 1000 mg/L; in the test on Staphylococcus aureus, 1000 mg/L; in the test on Klebsiella aerogenes it was 1000 mg/L; with Streptococcus pyogenes, 1000 mg/L; in the test with Salmonella typhimurium it was 500 mg/L.
In the case of `Cc1cccc2cc3c(nc12)SC(Nc1cccc(F)c1)=NN=C3`, the minimum inhibitory concentration (MIC) in the test on Curvularia australiensis turned out to be 1000 mg/L; with Aspergillus niger, 1000 mg/L; in the test on Alternaria alternata, 500 mg/L; in the test on Aspergillus flavus, 1000 mg/L; in the test with Trichoderma reesei it was 500 mg/L; in the test on Escherichia coli, 1000 mg/L. For the same compound, the MIC was determined as 1000 mg/L in the test on Bacillus subtilis; 500 mg/L in the test with Staphylococcus aureus; 1000 mg/L with Klebsiella aerogenes; 500 mg/L in the test on Streptococcus pyogenes; 500 mg/L in the test on Salmonella typhimurium.
Take `COc1ccc2nc3c(cc2c1)C=NN=C(Nc1ccccc1C)S3`: the MIC with Curvularia australiensis amounted to 1000 mg/L; in the test on Aspergillus niger, 1000 mg/L; in the test with Alternaria alternata, 1000 mg/L; with Aspergillus flavus it was 500 mg/L; in the test on Trichoderma reesei, 500 mg/L; in the test on Escherichia coli, 500 mg/L. For the same compound, the MIC came to 1000 mg/L in the test with Bacillus subtilis; 1000 mg/L in the test with Staphylococcus aureus; 1000 mg/L in the test with Klebsiella aerogenes; 1000 mg/L in the test with Streptococcus pyogenes; 125 mg/L in the test with Salmonella typhimurium.
As to `Cc1ccc(NC2=NN=Cc3cc4ccc(Cl)c(C)c4nc3S2)c(C)c1`, the MIC with Curvularia australiensis is 500 mg/L; in the test on Aspergillus niger it was 500 mg/L; in the test on Alternaria alternata, 250 mg/L; in the test on Aspergillus flavus it was 500 mg/L; with Trichoderma reesei it was 250 mg/L; in the test with Escherichia coli it was 60 mg/L. In addition, the minimum inhibitory concentration (MIC) came to 30 mg/L with Bacillus subtilis; 500 mg/L in the test with Staphylococcus aureus; 500 mg/L with Klebsiella aerogenes; 60 mg/L with Streptococcus pyogenes; 500 mg/L in the test on Salmonella typhimurium.
Turning to `Cc1ccc(NC2=NN=Cc3cc4cc(C)ccc4nc3S2)cc1`, the MIC with Curvularia australiensis is 1000 mg/L; in the test on Aspergillus niger, 1000 mg/L; with Alternaria alternata, 500 mg/L; with Aspergillus flavus it was 1000 mg/L; with Trichoderma reesei, 500 mg/L; in the test on Escherichia coli, 1000 mg/L. The MIC was 1000 mg/L in the test on Bacillus subtilis; over 1000 mg/L in the test on Staphylococcus aureus; 60 mg/L with Klebsiella aerogenes; 1000 mg/L in the test on Streptococcus pyogenes; 60 mg/L in the test on Salmonella typhimurium.
For `Cc1cccc2cc3c(nc12)SC(NCc1ccccc1)=NN=C3`, the MIC in the test on Curvularia australiensis is 1000 mg/L; with Aspergillus niger, 500 mg/L; in the test on Alternaria alternata, 1000 mg/L; in the test on Aspergillus flavus it was 1000 mg/L; in the test on Trichoderma reesei, 1000 mg/L; in the test with Escherichia coli, over 1000 mg/L. The MIC with Bacillus subtilis was over 1000 mg/L; in the test on Staphylococcus aureus, over 1000 mg/L; in the test on Klebsiella aerogenes, 1000 mg/L; with Streptococcus pyogenes, over 1000 mg/L; with Salmonella typhimurium, over 1000 mg/L.
On to `Cc1ccc2nc3c(cc2c1)C=NN=C(Nc1c(C)cccc1C)S3`, for which the MIC was 1000 mg/L in the test with Curvularia australiensis; 1000 mg/L in the test with Aspergillus niger; 500 mg/L in the test with Alternaria alternata; 1000 mg/L in the test with Aspergillus flavus; 250 mg/L in the test on Trichoderma reesei; 1000 mg/L in the test with Escherichia coli. Moreover, the MIC in the test with Bacillus subtilis, in the test with Staphylococcus aureus, in the test on Klebsiella aerogenes, with Streptococcus pyogenes and with Salmonella typhimurium was 1000 mg/L each time.
